From patent publication US6949516B2, “Dipeptide apoptosis inhibitors and the use thereof” (Cytovia, Inc., priority 1997, dated 2005)

Tests used:
[1] = test system: PARP cleavage in Jurkat cells; assay: Inhibition of PARP cleavage in antiFas-treated Jurkat cells (Example 22, Western blot); assay type: cell-based, human; settings: for inhibition of PARP cleavage: antiFas-treated Jurkat cells
Text: The cleavage of the enzyme poly(ADP)ribose polymerase (PARP) appears to occur in all cells in which the caspase proteolytic cascade is activated. For this reason, PARP cleavage is widely used as a biochemical marker for caspase-mediated apoptosis. The ability of a cytoprotective drug to block PARP cleavage is considered to be an indication of the drug's ability to inhibit the caspase proteolytic cascade and, in particular, CPP32 (caspase-3), the main PARP protease. The ability of Cbz-Val-Asp(OMe)-CH2F to inhibit PARP cleavage was examined during Fas-mediated apoptosis of Jurkat cells, a human T-cell line. This cell culture model of apoptosis is well-characterized and is known to involve activation of at least two caspases, caspase-3 (CPP32) and caspase-8 (FLICE/MACH).
For PARP cleavage assays, Jurkat cells were seeded at a density of 500,000 cells per well in six-well multidishes in RPMI 1640 medium containing 10% FBS. The cells were pre-incubated with Cbz-Val-Asp(OMe)-CH2F or other test compounds for 2 hours at 37° C. in a CO2 incubator and then a monoclonal antibody to Fas was added at a final concentration of 500 ng/mL. Incubation at 37° C. in a CO2 incubator was continued for an additional 4 hours. […] An amount of lysate corresponding to 10 to 20 μg of protein was loaded on a 7.5% SDS polyacrylamide gel and electrophoresed for 2 to 2.5 hrs at 25 mA. The protein was then transferred to a PVDF membrane, probed with a rabbit polyclonal antibody to PARP, and visualized using chemiluminescence.
Jurkat cells were pre-incubated with 0.5, 5, or 50 μM of the following compounds: Cbz-Val-Asp(OMe)-CH2F (compound 1); BOC-Asp(OMe)-CH2F (compound 5); Cbz-Asp-α-([2,6-dichlorobenzoyloxy]-methyl ketone) (compound 6), Cbz-Glu(OMe)-Val-Asp(OMe)-CH2F (compound 3), Cbz-Asp(OMe)-Glu(OMe)-Val-Asp(OMe)-CH2F (SEQ ID NO:1) (compound 2), Cbz-Ile-Glu(OMe)-Thr-Asp(OMe)-CH2F (SEQ ID NO:2) (compound 4), or Cbz-Val-Ala-Asp(OMe)-CH2F (compound 7). The cells were then treated with antiFas and processed for Western Blotting.

HeLa cells = assay: Effect of Z-VD-fmk on TNF-α-induced cell death in HeLa cells (calcein AM, Example 25); assay type: cell-based; settings: TNF-α 25 ng/mL + CHX 30 μg/mL, zero to 500 nM tested
Description: Tumor necrosis factor alpha (TNF-α) can trigger apoptosis in a number of cell types by initiating the caspase cascade and its apoptosis inducing activity can be inhibited by peptide-based caspase inhibitors. However, high concentrations of the inhibitors (50 μM or greater) is required to have good anti-apoptotic effect. HeLa cells, a cell line commonly employed in TNF-α cell death studies, was used here to determine the anti-apoptotic potency of Z-VD-fmk.
HeLa cells were seeded in 48-well multidishes at a density of 50,000 cells per well 24 hours before treatment. They were then pre-incubated with varying concentrations of Z-VD-fmk for 2 hours and challenged with TNF-α (25 ng/mL) and cycloheximide (CHX; 30 μg/mL). The cultures were incubated for an additional 24 hours and dead cells were removed by two washes with PBS. The density of surviving cells was then measured by incubating each culture for 45 minutes with calcein AM, a profluorescent dye which is taken up by living cells and converted to a fluorescent product. The resulting data were expressed as % control values (control values were cells incubated with cycloheximide but without TNF-α).
Z-VD-fmk provided good cytoprotection at concentrations approaching 100 nM.

| Compound | inhibition of PARP cleavage ([1]; 0.5 μM) | inhibition of PARP cleavage ([1]; 5 μM) | inhibition of PARP cleavage ([1]; 50 μM) | concentration blocking the caspase proteolytic cascade in intact cells, fold lower than other known caspase inhibitors ([1]; Jurkat cells) | concentration providing good cytoprotection against TNF-α-induced cell death (HeLa cells) [nM] |
| --- | --- | --- | --- | --- | --- |
| COC(=O)CC(NC(=O)C(NC(=O)OCc1ccccc1)C(C)C)C(=O)CF (stereo not drawn) [Cbz-Val-Asp(OMe)-CH2F, Z-Val-Asp-fmk Methyl Ester] | significant inhibition | completely inhibited | completely inhibited | at least 10 fold |  |
| CC(C)[C@H](NC(=O)OCc1ccccc1)C(=O)NC(CC(=O)O)C(=O)CF (stereo partly drawn) [Cbz-Val-Asp-CH2F, Z-Val-Asp-fmk] |  |  |  |  | ~100 |
